Patent EP4703362A1 (Chengdu Sibeibo Pharmaceutical Technology Co., Ltd, priority 2023, dated 2024)
Read-outs that look alike come from different tables or passages of the source.

What was measured:
[1] = plasma protein binding rate test, equilibrium dialysis (rat); format: in vitro ADME, SD rat; conditions: 1 µM, 6 hours, 37°C
Experimental: (§1) Protein binding rates of the compound of the present invention in plasma of rat, monkey and human were determined by an equilibrium dialysis method. Tested compounds of the present invention were the compounds in Examples 6, 8 and 29, and a control drug was Zavegepant.
(§2) 3.1 A dry dialysis membrane was rinsed with ultrapure water for 2-3 times, and then soaked in a phosphate buffer for 1 hour for later use. Polytetrafluoroethylene module was soaked in 20% ethanol for 30 minutes, and then surface moisture was dried with dust-free paper for later use. The pretreated dialysis membrane was assembled into a dialysis plate according to the product specification, and one side (receptor compartment) of an osmotic membrane in each dialysis well was added with 100 µL of receptor fluid (100 mM phosphate buffer solution plus 0.002% Tween 80).
(§3) 3.2 The plasma was put into a centrifuge tube, a working solution of a tested substance was added into the plasma, wherein a final concentration was 1 µM, and the mixture was turned upside down and mixed evenly (this step was carried out in ice bath). 20 µL of drug-containing plasma each was taken, and was respectively transferred to a 96-well sample plate according to two parts in parallel, and stored in a refrigerator at -20°C as a T0 sample.
(§4) 3.3 Another 100 µL of the above drug-containing plasma was transferred to the other side (sample compartment) of the membrane in the dialysis device according to two parts in parallel, and incubated under vibration at a constant temperature of 37°C for 6 hours. After 6 hours of incubation, 20 µL of the plasma was respectively taken out from the receptor compartment and the sample compartment after equilibration to obtain samples B and A. The samples B and A were respectively added with corresponding volumes of corresponding blank plasma or phosphate buffer solution (containing 0.002% Tween 80), so that a volume ratio of the plasma to the buffer solution in each sample well was 1: 1.
(§5) 3.4 All sample wells were added with 250 µL of methanol solution containing an internal standard, mixed evenly and then centrifuged in a centrifuge at 3800 rpm for 10 minutes. […]
(§6) A plasma protein binding rate and a recovery rate of the compound in plasma were calculated by the following formulas: dissociation percentage (%) = CB /CA; [formula] plasma protein binding rate (fb%) = 1−dissociation percentage (%); [formula] recovery rate (%) = (CB+CA)/CT0 [formula] wherein CB was a concentration of the compound in the receptor fluid after equilibrium dialysis; CA was a concentration of the compound in the drug-containing plasma after equilibrium dialysis; and CT0 was an initial concentration of the compound in plasma.

[2] = system: capsaicin-induced change of blood flow in forearm skin of cynomolgus monkeys; experiment: in-vivo pharmacodynamic study, capsaicin-induced change of blood flow in forearm skin; conditions: 0.05 mg/kg IV, 10 minutes after capsaicin treatment
Experimental: • 2.1Animal information: Species and strain: cynomolgus monkeys, male (5-8 kg), animal license: SYXK(Su)2019-0004, depilated 3 days before the experiment. • 2.2Preparation of test sample: An appropriate amount of drug was accurately weighed and dissolved in sterile saline solution, and mixed evenly and dissolved fully in an ultrasonic and vortexed mode to obtain a 0.05 mg/ml drug solution for intravenous (IV) administration. • 2.3In a pre-test stage, a blood flow in a forearm of an anesthetized animal was scanned by a blood flow meter, and an O-shaped rubber ring was placed on an inner side of the arm, avoiding obvious blood vessels.

[3] = plasma protein binding rate test, equilibrium dialysis (monkey); format: in vitro ADME, cynomolgus monkey; conditions: 1 µM, 6 hours, 37°C
Experimental: as §1, §2, §3, §4, §5, §6

[4] = stability test in liver microsomes (human); format: in vitro ADME
Experimental: (§7) The stability of the compound of the present invention in liver microsomes of rat, monkey and human was determined. Tested compounds of the present invention were the compounds in Examples 6, 8 and 29, and a control drug was Zavegepant.
(§8) 3.2 An appropriate amount of liver microsome solution was transferred into a 1 mL 96-deep-well plate, added with a tested drug liquid (or a probe substrate solution), and pre-incubated in a thermal mixer at 37°C for 5 minutes. Two parts of mixed solutions were taken out from the system and added with 1×PBS to replace NADPH, and the mixed solutions were taken out at 0 and 60 minutes respectively, and added with methanol (containing an internal standard) to terminate the reaction. In the remaining mixed system, each well was added with NADPH to start the reaction. In the tested substance group, mixed solutions were taken out from the system at 0, 5, 15, 30, 45 and 60 minutes, and in the control group, mixed solutions were taken out from the system at 0, 30 and 60 minutes, and the mixed solutions were added methanol (containing an internal standard) to terminate the reaction. All samples of the terminated reaction were mixed evenly and centrifuged in a centrifuge at 3800 rpm for 15 minutes, and the supernatant was taken for LC-MS/MS analysis.
(§9) A peak area was determined by an extracted ion chromatogram. A slope value k was determined by linear regression of a remaining percentage of a parent drug relative to a natural logarithm of an incubation time curve. According to the slope, in-vitro half-life periods (t1/2) were respectively calculated, and in-vitro intrinsic clearance rates (CLint, represented by µL/min/mg protein) were calculated. Calculation formulas were as follows: t1/2 = ln2/k = 0.693/k; and CLint = 0.693/t1/2 /liver microsome protein concentration [formula]

[5] = stability test in liver microsomes (monkey); format: in vitro ADME
Experimental: as §7, §8, §9

[6] = plasma protein binding rate test, equilibrium dialysis (human); format: in vitro ADME; conditions: 1 µM, 6 hours, 37°C
Experimental: as §1, §2, §3, §4, §5, §6

[7] = in-vivo pharmacokinetic study on SD rats, intravenous and intranasal administration; conditions: for AUC: read-out: Area under curve AUC; for bioavailability: read-out: Bioavailability F%; for half-life: read-out: Half-life period t1/2 (converted); for Vd: read-out: Volume of distribution steady-state Vss
Experimental: Species: SD rats, male, SPF level.
2.1 An appropriate amount of drug was accurately weighed and added with 50 mM succinate buffer (diluted with D5W, pH=5-6), and mixed evenly and dissolved fully in an ultrasonic and vortexed mode to obtain a 0.2 mg/mL drug solution for intravenous (IV) administration.
2.2 An appropriate amount of drug was accurately weighed and added with 50 mM succinate buffer (diluted with pure water, pH=5-6), and mixed evenly and dissolved fully in an ultrasonic and vortexed mode to obtain a 10 mg/mL drug solution for intranasal (IN) administration.
5 minutes, 10 minutes, 15 minutes, 0.5 hour, 1 hour, 2 hours, 4 hours, 8 hours and 24 hours after administration.
Blood was collected through a jugular vein, about 0.2 mL of each sample was collected, EDTA-K2 was used for anticoagulation, the collected blood sample was placed on ice, and plasma was centrifugally separated within 2 hours (at 6000 g and 2-8°C for 5 minutes). The collected plasma samples were stored in a refrigerator at -80°C before analysis, and the remaining plasma samples after analysis were continuously stored in the refrigerator at -80°C for temporary storage.
A concentration of a specified compound in plasma was determined by an LC-MS/MS method, and main pharmacokinetic parameters were calculated by a Winnolin 8.3 non-compartmental model.

[8] = stability test in liver microsomes (rat); format: in vitro ADME
Experimental: as §7, §8, §9

CGRP receptor = molecular target: T1, CGRP receptor (Homo sapiens, UniProt O60894+Q16602); experiment: Competitive binding determination of in-vitro [125I] CGRP; conditions: competition with 125I-CGRP (Human) 200 pM, SK-N-MC cell membrane
T1 construct: A tissue homogenate of SK-N-MC cell membrane was used as a receptor source; host or cells: SK-N-MC (membrane preparation)

[9] = male, rat, plasma, other: intranasal, IN@2 mg/kg

Row | Structure (SMILES) | fb (%) [1] [%] | blood flow inhibition rate (Mean) [2] [%] | fb (%) [3] [%] | half-life at 1 µM ([4]; 1.0 µM) [h] | % remaining (60 min) [4] [%] | half-life at 1 µM [5] [h] | microsomal CLint at 1 µM [5] [µL/min/mg] | % remaining (60 min) [5] [%] | fb (%) [6] [%] | half-life at 1 µM [8] [h] | microsomal CLint at 1 µM [8] [µL/min/mg] | % remaining (60 min) [8] [%] | other results
1 | Cc1cc(C[C@@H](NC(=O)N2CCC(c3cc4c([nH]c3=O)SCCC4)CC2)C(=O)N2CCN(C3CCN(C)CC3)CC2)cc2cn[nH]c12 [Example 6, (R)-N-(3-(7-methyl-1H-indazole-5-yl)-1-(4-(1-methylpiperidine-4-yl)piperazine-1-yl)-1-oxopropan-2-yl)-4-(7-oxo-3,4,7,8-tetrahydro-2H-thiopyrano[2,3-b]pyridine-6-yl)piperidine-1-for mamide] | 90.0 | 355.3 | 61.3 | > 2 | 131 | > 2 | 0.8 | 96.9 | 76.7 | > 2 | 2.4 | 91.5 | AUC ([7]; rat, plasma, IN@2 mg/kg): 2400 ng·h/mL; bioavailability ([7]; rat, plasma, IN@2 mg/kg): 20.1%; half-life ([7]; rat, plasma, IN@2 mg/kg): 3.8 h; AUC ([7]; rat, plasma, IV@1 mg/kg): 5990 ng·h/mL; half-life ([7]; rat, plasma, IV@1 mg/kg): 2.52 h; Vd ([7]; rat, plasma, IV@1 mg/kg): 0.29 L/kg
2 | Cc1cc(C[C@@H](NC(=O)N2CCC(c3cc4ccccc4[nH]c3=O)CC2)C(=O)N2CCN(C3CCN(C)CC3)CC2)cc2cn[nH]c12 [Zavegepant, zavegepant, reference compound] | 92.7 | 89.7 | 78.5 | 1.11 | 57.5 | 1.78 | 13 | 72.1 | 82.0 | > 2 | 2.8 | 95.5 | microsomal CLint at 1 µM ([4]; 1.0 µM): 20.8 µL/min/mg; Apparent clearance CL ([7]; IV@1 mg/kg): 4.59 mL/min/kg; AUC ([7]; male, rat, plasma, IV@1 mg/kg): 3620 ng·h/mL; half-life ([7]; male, rat, plasma, IV@1 mg/kg): 2.58 h; Vd ([7]; male, rat, plasma, IV@1 mg/kg): 0.35 L/kg; AUC [7, 9]: 385 ng·h/mL; bioavailability [7, 9]: 5.31%; Cmax ([7]; male, rat, plasma, other: intranasal, IN@2 mg/kg, read-out: Concentration to peak Cmax): 645 ng/mL; half-life [7, 9]: 1.08 h; Ki (CGRP receptor): 0.0498 nM
